pIC50: −log10 of the molar value.
How the values were obtained:
PRMT1 [1] = biological target: T1, PRMT1 (Homo sapiens, UniProt Q99873); assay: PRMT1 Enzymatic Assay (LANCE TR-FRET, methylation of histone H4 at Arg3); format: biochemical; design: purchased SignalChem P365-380G; details: PRMT1 1.5 nM, SAM 1 μM, biotinylated histone H4 (1-21) 25 nM; read-out: PRMT-1 IC50
Procedure: In order to measure PRMT1 enzymatic activity the LANCE TR-FRET assay from PerkinElmer was used to follow the methylation of histone H4 at Arg3 using S-adenosyl-L-methionine (SAM) as the methyl group donor.
This enzymatic assay was performed in a 384 well, white, low volume plate (PerkinElmer, Catalog 6008289) with assay buffer consisting of 50 mM Hepes (pH 8) (Teknova, Catalog #H1090), 1 mM TCEP (Sigma, Catalog #C4706), and 0.003% Tween-20 (Thermo, Catalog #85114). Stock solutions of the test compounds were prepared in 100% DMSO (Sigma, Catalog #D2650) and serially diluted 1:3 using 100% DMSO. Compounds were additionally diluted 1:40 in assay buffer, and 2 uL/well were transferred to the assay plate. 4 uL/well (final concentration 1.5 nM) of PRMT1 protein (SignalChem, Catalog #P365-380G) diluted in assay buffer was added to the assay plate followed by a 15 min preincubation at room temperature. 4 uL/well of SAM (Sigma, Catalog #A7007) and biotinylated histone H4 (1-21) (AnaSpec, Catalog #62555) (final concentrations 1 μM and 25 nM, respectively) diluted in assay buffer were then added to the assay plate followed by a 1 hour reaction time. Final concentrations of PRMT1, SAM, and histone H4 (1-21) refer to a […].
Detection of methylated histone H4 (H4R^3me) was achieved by combining LANCE Ultra Europium-anti-H4R^3me antibody (PerkinElmer, Catalog #TRF04-14), LANCE Ultra ULight-anti-streptavidin antibody (PerkinElmer, Catalog #TRF0102), and sinefungin (Sigma, Catalog #S8559) (final concentrations 2 nM, 50 nM, and 100 μM respectively) in 1× LANCE detection buffer (PerkinElmer, Catalog #CR97-100) and adding L/well of the detection solution to the assay plate. Detection reagents were allowed to react for 1 hour at room temperature. Final concentrations in the detection solution refer to a L volume. The europium fluorescence signal and the ULight TR-FRET signal were measured using a BioTek Synergy Neo plate reader: excitation at 330 nm, emission at 620 nm and 665 nm respectively, and the ratio of the two signals (665 nm/620 nm) was used for curve fitting. IC50 values were calculated using a four-parameter logistic curve fit using Genedata Screener software.

DOHH2 cells = assay: DOHH2 Long Term Phenotypic Assay (7 days, Cell Titer-Glo viability); format: cell-based; details: Cell Titer-Glo 2.0
Procedure: DOHH2 cells were kindly provided by Michael Green (MDACC). The cells were routinely maintained in RPMI-1640 Medium (ATCC, Catalog #30-2001) supplemented with 10% fetal bovine serum (Sigma, Catalog #F2442), 100 units/mL penicillin and 100 μg/mL streptomycin (Gibco, Catalog #15140-122) in a humidified incubator (37° C., 5% CO2). Cells were seeded onto a white, CulturPlate-384 (Perkin Elmer, catalog #6007680) at a density of 250 cells per well in a volume of 50 μL. Stock solutions of the test compounds were prepared in 100% DMSO (Sigma, Catalog #D2650) and serially diluted 1:3 using 100% DMSO. Compounds were additionally diluted 1:33 in culture medium, and 10 μL/well was transferred to the tissue culture plate. Following the compound addition, the plate was incubated at 37° C. and 5% CO2 for 7 days. Cells were then mixed and a 30 μL volume was removed. Viability was assessed by a 30 μL addition of Cell Titer-Glo 2.0 (Promega, catalog #G9243). The plate was then shaken on an orbital shaker at 300 RPM for 10 minutes at room temperature, in the dark. Luminescence was measured using a PerkinElmer Envision™ plate reader. IC50 values were calculated using a four-parameter logistic curve fit using Genedata Screener software.

PRMT1 [2] = biological target: T1, PRMT1; assay: PRMT1 RKO Cellular Target Engagement Assay (In-Cell Western, asymmetric di-methyl arginine); format: cell-based; details: RKO cells, 48 hr compound incubation; read-out: RKO IC50 (PRMT-1 Target Engagement)
Procedure: RKO cells were routinely maintained in EMEM media (ATCC, Catalog #30-2003) supplemented with 10% fetal bovine serum (Sigma, Catalog #F2442) using a humidified incubator (37° C., 5% CO2, and ambient O2).
In preparation for the In-Cell Western assay, cells were harvested and resuspended in EMEM media supplemented with 10% fetal bovine serum. Cells were seeded onto a 384 well, black, clear bottom, Poly-D-Lysine coated tissue culture plate (Greiner, Catalog #781946) at a density of 1,000 cells/well in a volume of 40 μL. The culture plate was incubated for 24 hr at 37° C. with 5% CO2 and ambient O2. Stock solutions of the test compounds were prepared in 100% DMSO (Sigma, Catalog #D2650) and serially diluted 1:3 using 100% DMSO. Compounds were additionally diluted 1:40 in culture medium, and 10 μL/well was transferred to the tissue culture plate. Following the compound addition the microplate was incubated at 37° C. for 48 hr.
The media was removed, the plate was washed with 1× PBS (Fisher Bioreagents, Catalog #BP399-20), and cells were fixed for 10 min using 30 μL/well of 4% paraformaldehyde (Electron Microscopy Sciences, Catalog #15710). The paraformaldehyde was removed, the plate was again washed with 1× PBS, and cells were permeabilized for 15 min using 30 μL/well of 1× PBS containing 0.5% Triton-X 100 (Sigma, Catalog #1001748095). The permeabilization buffer was removed, the plate was washed with 1× PBST (Boston BioProducts, Catalog #IBB-171X), and 50 μL/well of blocking buffer (LI-COR, Catalog #927-40000) was added followed by a 1 hour incubation at room temperature. The blocking buffer was removed, and 20 μL/well of anti-asymmetric di-methyl arginine antibody (Cell Signaling, Catalog #13522S) diluted 1:1000 in LI-COR blocking buffer was added to the plate and incubated overnight, in the dark at 4° C.
The primary antibody was then removed, and the plate was washed three times with 1× PBST. 20 μL/well of CellTag (LI-COR, Catalog #926-41090) and IRDye 800CW goat anti-rabbit IgG antibody (LI-COR, Catalog #926-32211), each diluted 1:500 in LI-COR blocking buffer supplemented with 0.1% Tween-20 (Thermo Scientific, Catalog #85114), were added to the plate. The plate was then incubated in the dark, at room temperature for 1 hour followed by three washes with 1× PBST and one wash with H2O. The IRDye secondary antibody signal (800 channel) and the CellTag signal (700 channel) were measured using a Licor Odyssey Imager, and the 800 channel signal was then normalized to the 700 channel signal. IC50 values were calculated using a four-parameter logistic curve fit using Genedata Screener software.

T1 sequence (Q99873 whole entry): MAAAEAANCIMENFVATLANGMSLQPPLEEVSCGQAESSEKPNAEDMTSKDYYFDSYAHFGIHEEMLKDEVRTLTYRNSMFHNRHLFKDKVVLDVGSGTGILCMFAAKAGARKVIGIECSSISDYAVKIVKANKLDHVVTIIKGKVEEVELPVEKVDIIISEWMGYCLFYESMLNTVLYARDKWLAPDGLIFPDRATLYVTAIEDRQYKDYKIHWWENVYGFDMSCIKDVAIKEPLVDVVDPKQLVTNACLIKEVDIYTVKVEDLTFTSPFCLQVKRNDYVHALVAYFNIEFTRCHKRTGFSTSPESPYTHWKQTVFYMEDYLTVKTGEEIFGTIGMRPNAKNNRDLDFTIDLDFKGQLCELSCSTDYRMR

SMILES	pIC50 (PRMT1 [1])	pIC50 (DOHH2 cells; Homo sapiens, DOHH-2, 168 h)	pIC50 (PRMT1 [2])	pIC50 (DOHH2 cells)
CNCCN(C)Cc1nn2c(c1C1CCC(COC)(COC)CC1)CN(C(=O)C(C)(C)OC)CC2 [Example 69, 1-(3-(4,4-bis(methoxy-methyl)cyclohexyl)-2-((methyl(2-(methylamino)-ethyl)amino)methyl)-6,7-dihydropyrazolo[1,5-a]-pyrazin-5(4H)-yl)-2-methoxy-2-methylpropan-1-one]	6.49	6.32	6.37	–
COCC1(COC)CCC(c2c(CN(C)CCN)nn3c2CN(C(=O)C(C)(C)C(F)(F)F)CC3)CC1 [Example 70, 1-(2-(((2-aminoethyl)-(methyl)amino)methyl)-3-(4,4-bis(methoxymethyl)-cyclohexyl)-6,7-dihydro-pyrazolo[1,5-a]pyrazin-5(4H)-yl)-3,3,3-trifluoro-2,2-dimethylpropan-1-one]	7.36	6.71	6.59	–
CNCCN(C)Cc1nn2c(c1C1CCC(COC)(COC)CC1)CN(C(=O)C(C)(C)O)CC2 [Example 71, 1-(3-(4,4-bis(methoxy-methyl)cyclohexyl)-2-((methyl(2-(methylamino)-ethyl)amino)methyl)-6,7-dihydropyrazolo[1,5-a]-pyrazin-5(4H)-yl)-2-hydroxy-2-methylpropan-1-one]	6.58	6.02	5.46	–
CNCCN(C)Cc1nn2c(c1C1CCC(COC)(COC)CC1)CN(C(=O)C(C)COC)CC2 (stereo not drawn) [Example 72, 1-(3-(4,4-bis(methoxy-methyl)cyclohexyl)-2-((methyl(2-(methylamino)-ethyl)amino)methyl)-6,7-dihydropyrazolo[1,5-a]-pyrazin-5(4H)-yl)-3-methoxy-2-methylpropan-1-one]	6.95	6.51	6.50	–
CNCCN(C)Cc1nn2c(c1C1CCC(COC)(COC)CC1)CN(C(=O)C1CCOC1(C)C)CC2 (stereo not drawn) [Example 73, (3-(4,4-bis(methoxymethyl)-cyclohexyl)-2-((methyl(2-(methylamino)ethyl)amino)-methyl)-6,7-dihydropyrazolo-[1,5-a]pyrazin-5(4H)-yl)(2,2-dimethyltetrahydrofuran-3-yl)methanone]	6.93	6.24	6.33	–
CNCCN(C)Cc1nn2c(c1C1CCC(COC)(COC)CC1)CN(C(=O)C1CC(C)(O)C1)CC2 (stereo not drawn) [Example 75, (3-(4,4-bis(methoxymethyl)-cyclohexyl)-2-((methyl(2-(methylamino)ethyl)amino)-methyl)-6,7-dihydropyrazolo-[1,5-a]pyrazin-5(4H)-yl)(3-hydroxy-3-methylcyclobutyl)methanone]	7.15	5.84	5.25	–
CNCCN(C)Cc1nn2c(c1C1CCC(COC)(COC)CC1)CN(C(=O)C1(C)CCOC1)CC2 (stereo not drawn) [Example 76, (3-(4,4-bis(methoxymethyl)-cyclohexyl)-2-((methyl(2-(methylamino)ethyl)amino)-methyl)-6,7-dihydropyrazolo-[1,5-a]pyrazin-5(4H)-yl)(3-methyltetrahydrofuran-3-yl)-methanone]	7.07	7.03	6.44	–
CNCCN(C)Cc1nn2c(c1C1CCC(COC)(COC)CC1)CN(C(=O)C1CC(C)(C)C1)CC2 [Example 77, (3-(4,4-bis(methoxymethyl)-cyclohexyl)-2-((methyl(2-(methylamino)ethyl)amino)-methyl)-6,7-dihydropyrazolo-[1,5-a]pyrazin-5(4H)-yl)(3,3-dimethylcyclobutyl)-methanone]	7.08	–	6.60	6.69
CNCCN(C)Cc1nn2c(c1C1CCC(COC)(COC)CC1)CN(C(=O)C(C)(C)C1CCC1)CC2 [Example 78, 1-(3-(4,4-bis(methoxy-methyl)cyclohexyl)-2-((methyl(2-(methylamino)-ethyl)amino)methyl)-6,7-dihydropyrazolo[1,5-a]-pyrazin-5(4H)-yl)-2-cyclobutyl-2-methylpropan-1-one]	7.17	6.81	6.72	–
CNCCN(C)Cc1nn2c(c1C1CCC(COC)(COC)CC1)CN(C(=O)C1CCC(C)(C)O1)CC2 (stereo not drawn) [Example 79, (3-(4,4-bis(methoxymethyl)-cyclohexyl)-2-((methyl(2-(methylamino)ethyl)amino)-methyl)-6,7-dihydropyrazolo-[1,5-a]pyrazin-5(4H)-yl)(5,5-dimethyltetrahydrofuran-2-yl)methanone]	6.66	6.52	6.16	–
CNCCN(C)Cc1nn2c(c1C1CCC(COC)(COC)CC1)CN(C(=O)C1CCC1(F)F)CC2 (stereo not drawn) [Example 81, (3-(4,4-bis(methoxymethyl)-cyclohexyl)-2-((methyl(2-(methylamino)ethyl)amino)-methyl)-6,7-dihydropyrazolo-[1,5-a]pyrazin-5(4H)-yl)(2,2-difluorocyclobutyl)-methanone]	6.88	6.53	6.44	–
